For six compounds, EC50 and inhibition results are on record in patent US10604512B2, “3-(1H-indol-2-yl)-1H-indazoles and therapeutic uses thereof” (Samumed, LLC, priority 2015, dated 2020).

One experiment relates to IL-6. Kind of experiment: Inhibition of IL-6 in LPS-stimulated THP-1 human monocyte cells (HTRF). Type of experiment: cell-based. The conditions noted are these: for EC50: IL-6 inhibition, LPS-stimulated THP-1 cells, HTRF; for inhibition at 10 µM: THP-1, printed beside >10 μM EC50, top concentration 10 μM, meaning not given, read-out: percentage in parentheses after EC50 >10. A digest of the protocol: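 THP-1 cells serum-reduced (1% FBS, 24 h), then 5000 cells/well preincubated 2 h with compound (10-point 1:3 series from 10 μM, 0.1% DMSO) before 500 ng/mL LPS for 22 h at 37 °C. Secreted IL-6 quantified by HTRF 665/620 ratio; DMSO-normalised duplicates fitted to four-parameter EC50; above 10 μM, % inhibition at 10 μM given.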
On the technique in general: TR-FRET usually uses a lanthanide donor and a delayed reading to cut background.

In experiment [1] the test system is Wnt activity (Sp5-Luc reporter, TCF/LEF binding sites) in SW480 colon carcinoma cells. Description: Screening assay for Wnt activity: Sp5-Luc reporter gene assay in stably transduced SW480 colon carcinoma cells. Format: cell-based. As to conditions: Homo sapiens, overnight incubation, 10-point curve from 10 μM. A digest of the protocol: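 SW480 cells stably transduced with a luciferase reporter driven by an Sp5 promoter of eight TCF/LEF sites were plated at 4,000 cells/well in 1% FBS medium. They were exposed overnight at 37° C to a 10-point 1:3 dilution series from 10 μM (0.1% DMSO). Luminescence was normalized to DMSO for four-parameter EC50, or percent inhibition at 10 μM.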
In general terms: In a reporter assay the amount or activity of a reporter protein is the signal.

The structures appear in SMILES notation.

For the compound `Fc1cccc(-c2cccc3[nH]c(-c4n[nH]c5ccc(-c6ccncc6)cc45)cc23)c1` [Compound 18, 3-(4-(3-Fluorophenyl)-1H-indol-2-yl)-5-(pyridin-4-yl)-1H-indazole], the EC50 in the experiment on IL-6 is 0.031 µM; in experiment [1], 4.62 µM.

As to `O=C(Cc1ccccc1)Nc1cncc(-c2ccc3[nH]nc(-c4cc5c(-c6ccoc6)cccc5[nH]4)c3c2)c1` [Compound 318, N-(5-(3-(4-(Furan-3-yl)-1H-indol-2-yl)-1H-indazol-5-yl)pyridin-3-yl)-2-phenylacetamide], the EC50 in the experiment on IL-6 is 0.304 µM; in experiment [1] it was 1.12 µM.

Consider `CC(C)(C)CC(=O)Nc1cncc(-c2ccc3[nH]nc(-c4cc5c(-c6ccsc6)cccc5[nH]4)c3c2)c1` [Compound 296, 3,3-Dimethyl-N-(5-(3-(4-(thiophen-3-yl)-1H-indol-2-yl)-1H-indazol-5-yl)pyridin-3-yl)butanamide], for which the EC50 is over 10 µM in the experiment with IL-6 and 0.455 µM in experiment [1]. Moreover, the inhibition at 10 µM with IL-6 was 31.6%.

Consider `c1cc(-c2ccoc2)c2cc(-c3n[nH]c4ccc(-c5cncc(CNCC6CCCC6)c5)cc34)[nH]c2c1` [Compound 333, 1-Cyclopentyl-N-((5-(3-(4-(furan-3-yl)-1H-indol-2-yl)-1H-indazol-5-yl)pyridin-3-yl)methyl)methanamine], for which the EC50 in the experiment with IL-6 was found to be 7.58 µM; in experiment [1] it was 3.77 µM.

Take `Nc1cncc(-c2ccc3[nH]nc(-c4cc5c(-c6ccoc6)cccc5[nH]4)c3c2)c1` [Compound 311, 5-(3-(4-(Furan-3-yl)-1H-indol-2-yl)-1H-indazol-5-yl)pyridin-3-amine]: the results for the EC50 (in the experiment on IL-6; in experiment [1]) were 0.519 µM and 0.04 µM, respectively.

As for `O=C(Nc1cncc(-c2ccc3[nH]nc(-c4cc5c(-c6ccsc6)cccc5[nH]4)c3c2)c1)C1CCCCC1` [Compound 303, N-(5-(3-(4-(Thiophen-3-yl)-1H-indol-2-yl)-1H-indazol-5-yl)pyridin-3-yl) cyclohexanecarboxamide], the EC50 in the experiment with IL-6 was over 10 µM; in experiment [1], 1.15 µM. Besides, in the experiment with IL-6, the inhibition at 10 µM stood at 43.9%.

As a reminder, the EC50 is the concentration at which the effect is half-maximal.
